This is an account of results in patent EP4782434A1, “N-SULFONYL CARBOXAMIDE COMPOUND, AND PREPARATION METHOD THEREFOR AND USE THEREOF” (Nutshell Therapeutics (Shanghai) Co., Ltd., priority 2023, dated 2025).

One assay addresses T1, Polθ ATPase (Homo sapiens, UniProt O75417).
T1 construct: purified truncated POLQ-N protein (aa 1-894, N-terminal 6-His tag); 6-His (N)
The experiment in a line: Polθ ATPase activity assay (ADP-Glo Kinase Assay kit). Format: biochemical. Particulars: truncated POLQ-N protein (aa 1-894) 1 nM, 50 nM ssDNA, 50 µM ATP. As to the method: The inhibitory efficiency of the compounds of formula (I) against Polθ ATPase activity was determined using the ADP-Glo Kinase Assay kit (Promega, V9101). […] The starting (final) concentration was 100 nM, followed by a 3-fold serial dilution for a total of 10 concentration points in duplicate (n=2). 5 μL of purified […], N-terminal 6-His tag) was added to each well. After centrifugation at 1000 rpm for 1 minute, the plate was incubated at 25°C for 10 minutes. 5 μL of substrate reaction solution (containing ATP & ssDNA) was added to each well, and the reaction was carried out at 25°C for 60 minutes. 5 μL of ADP-Glo Reagent was added to each well. After centrifugation at 1000 rpm for 1 minute, the plate was incubated at 25°C for 40 minutes. 10 μL of detection solution was added to each well. After centrifugation at 1000 rpm for 1 minute, the plate was incubated at 25°C for 40 minutes. Luminescence signals were recorded using a microplate reader (BMG, PHERAstar FSX). The final reaction system contained 1 nM of POLQ-N enzyme; 50 nM of ssDNA ([NT]); 50 μM of ATP; and 1% DMSO. The inhibition percentage (%) of the compound at each concentration was calculated using the RFU values normalized against the control wells within each assay plate. Table 1: Inhibitory activity of compounds against Polθ ATPase

The subject of a further assay is DLD-1 BRCA2-/- cells. Kind of assay: DLD-1 BRCA2-/- cell proliferation assay (CellTiter-Glo, 10 days incubation). Particulars: Homo sapiens, 240 h, DLD-1 BRCA2-/- cell line, total incubation period of 10 days, read-out: DLD1 BRCA2^-/- IC50. The format is cell-based. The text has this: The anti-proliferative effect of the compounds on the human colorectal adenocarcinoma cell line DLD-1 BRCA2^-/- method.
• DLD-1 (purchased from ATCC, Cat. No.: CCL-221, Batch No.: 70033255); • RPMI1640 (purchased from Invitrogen, Cat. No.: 11875-085); • 0.25% Trypsin-EDTA (purchased from Invitrogen, Cat. No.: 25200-072); • Penicillin-Streptomycin solution (purchased from Hyclone, Cat. No.: SV30010); • FBS (purchased from BI, Cat. No.: 04-002-1A); • DMSO (purchased from Sigma, Cat. No.: D4540-1L); • 96-well plate (purchased from Corning, Cat. No.: CLS3903); • CellTiter-Glo reagent (purchased from Promega, Cat. No.: G7558).
The anti-proliferative effect of the compounds on a human colorectal adenocarcinoma cell line was evaluated using an ATP quantification method, wherein the measured activity correlates well with the number of viable cells. The genetically edited cell line DLD-1 BRCA2^-/- was cultured in RPMI 1640 medium (Invitrogen, 11875-085) supplemented with 10% (v/v) fetal bovine serum (BI, 04-002-1A). The cell line was cultured according to the standard instructions of the American Type Culture Collection (ATCC) and identified via short tandem repeat (STR) genotyping.
In the proliferation assay, cells were harvested and resuspended in cell culture medium. Cell density was determined using a cell counter. An appropriate volume of cell suspension was aspirated from the centrifuge tube to prepare a plating working solution (150 cells/100 µL for the DLD-1 BRCA2^-/- cell line). 100 µL of the cell suspension was seeded into each well of a 96-well plate (Corning, 3603) and incubated overnight in an incubator. The diluted test compound solutions were added to the wells. On the fourth and seventh days of compound incubation, the medium was replaced with fresh culture medium, and the compounds were re-administered, for a total incubation period of 10 days. Following incubation, the cell culture plates were removed and equilibrated to room temperature. 100 µL of CellTiter-Glo (Promega, G7558) was added to each well, and the plate was incubated at room temperature for 30 minutes. Data were read using a microplate reader (PerkinElmer, Enspire) in 96-well luminescence mode. Data analysis, curve fitting, and reporting were performed using the dose-response one-site 205 model of IDBS XL fit. Table 2: Proliferation inhibitory activity of compounds against DLD-1 BRCA2-/- cells
In general terms: ATP-based viability assays read luminescence as a measure of living cells.

The test system of assay [1] is Theta-mediated end joining (TMEJ) process in HEK293T cells. Kind of assay: TMEJ reporter assay (NanoGlo luciferase). The format is cell-based. As to conditions: Homo sapiens, HEK-293T, HEK293T cells electroporated with TMEJ substrate, 24 hours. As to the method: The inhibitory effect of the compounds on the Theta-mediated end joining (TMEJ) process was evaluated.
(1) HEK293T cells were cultured in DMEM supplemented with 10% heat-inactivated fetal bovine serum (FBS) and 1% penicillin-streptomycin (PS). (2) Prior to startup, the Neon transfection system was disinfected, and E2 and R buffers were equilibrated to room temperature. (3) Culture medium without antibiotics was pre-warmed. (4) Cells in the flask reaching 80-90% confluency were trypsinized, neutralized with culture medium, centrifuged, and counted. (5) For transfection using a 100 µL electroporation tip, 2 × 10^6 cells were taken, washed once with DPBS (without Mg^2+ and Ca^2+), centrifuged at 1000 rpm for 5 min, and the supernatant was discarded. The number of cells and volume may be increased as required. (6) The Neon system was set up; a Neon tube was inserted into the Neon pipette and E2 buffer was added. (7) 10 µg of TMEJ substrate was added to 100 µL of R solution; the volume may be increased as required. (8) Cells were resuspended in DNA buffer, and electroporation was initiated according to the following parameters:
(9) The cells were loaded into antibiotic-free culture medium and mixed gently. (10) Steps (8)-(9) were repeated as necessary, and cells were seeded into 384-well plates at a density of 40,000 cells/well in 40 µL of culture medium. (11) The plates were incubated in a humidified CO2 incubator at 37°C for 24 hours. (12) NanoGlo reagent was warmed to room temperature, and NanoGlo buffer was mixed with the substrate at a ratio of 50:1. (13) The cell culture plates were equilibrated at room temperature for 10 minutes. (14) 40 µL of NanoGlo substrate buffer was added to each well, followed by shaking at 300 rpm for 3 minutes protected from light. (15) Signals were read via a BMG PHERAstar FSX.
In general terms: In a reporter assay the amount or activity of a reporter protein is the signal.

Where only a bound is given, the exact number is not on record here.

T1 sequence (O75417 1-894): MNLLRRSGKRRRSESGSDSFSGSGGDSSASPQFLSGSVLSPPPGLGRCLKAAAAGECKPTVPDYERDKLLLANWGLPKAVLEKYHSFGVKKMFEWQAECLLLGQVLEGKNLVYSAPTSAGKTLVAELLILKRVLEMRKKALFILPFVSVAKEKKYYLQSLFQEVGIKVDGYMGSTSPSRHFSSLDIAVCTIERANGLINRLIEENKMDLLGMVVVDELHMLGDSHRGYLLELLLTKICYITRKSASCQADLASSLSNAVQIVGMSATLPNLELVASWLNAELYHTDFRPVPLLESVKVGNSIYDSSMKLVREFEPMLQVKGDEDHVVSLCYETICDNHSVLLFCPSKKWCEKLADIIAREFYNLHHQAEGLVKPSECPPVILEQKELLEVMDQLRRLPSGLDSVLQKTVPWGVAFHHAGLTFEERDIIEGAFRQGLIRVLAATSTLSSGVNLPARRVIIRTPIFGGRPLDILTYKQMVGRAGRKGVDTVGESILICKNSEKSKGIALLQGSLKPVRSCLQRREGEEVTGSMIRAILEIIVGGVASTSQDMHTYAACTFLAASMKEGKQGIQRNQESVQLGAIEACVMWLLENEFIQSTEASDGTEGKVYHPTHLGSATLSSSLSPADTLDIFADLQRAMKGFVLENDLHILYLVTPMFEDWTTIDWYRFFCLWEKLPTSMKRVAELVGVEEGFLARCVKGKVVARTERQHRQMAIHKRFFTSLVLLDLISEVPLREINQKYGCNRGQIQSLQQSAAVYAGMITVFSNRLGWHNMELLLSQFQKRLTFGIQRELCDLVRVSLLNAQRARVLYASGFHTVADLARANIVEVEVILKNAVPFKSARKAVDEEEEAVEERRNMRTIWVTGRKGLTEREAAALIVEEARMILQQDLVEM

For the compound `COc1ccc(C(F)F)cc1-c1cc(C)ccc1C(=O)NS(=O)(=O)Cc1ccc([C@H](C)OC)cc1` [cpd-3, (S)-5'-(difluoromethyl)-2'-methoxy-N-((4-(1-methoxyethyl)benzyl)sulfonyl)-5-methyl-[1,1'-biphenyl]-2-carboxamide], the IC50 against Polθ ATPase (class symbols) was at most 2 nM; on Polθ ATPase (specific values), 0.71 nM; in the assay with DLD-1 BRCA2-/- cells, 24 nM.

Take `COc1cnc(C(F)F)cc1-c1cc(C)ccc1C(=O)NS(=O)(=O)Cc1ccc([C@H](C)OC)cc1` [cpd-4, (S)-2-(2-(Difluoromethyl)-5-methoxypyridin-4-yl)-N-((4-(1-methoxyethyl)benzyl)sulfonyl)-4-methylbenzamide]: the IC50 against Polθ ATPase (class symbols) was at most 2 nM; at Polθ ATPase (specific values), 0.65 nM; in the assay with DLD-1 BRCA2-/- cells, 17 nM; in assay [1], 1 nM.

Take `COc1ccc(C(F)F)cc1-c1cc(C)ncc1C(=O)NS(=O)(=O)Cc1ccc([C@H](C)OC)cc1` [cpd-5, (S)-4-(5-(Difluoromethyl)-2-methoxyphenyl)-N-((4-(1-methoxyethyl)benzyl)sulfonyl)-6-methylnicotinamide]: the IC50 is at most 2 nM against Polθ ATPase (class symbols), 0.5 nM at Polθ ATPase (specific values), 27 nM in the assay on DLD-1 BRCA2-/- cells and 1 nM in assay [1].

Consider `COc1cnc(C(F)F)cc1-c1cc(C)ncc1C(=O)NS(=O)(=O)Cc1ccc([C@H](C)OC)cc1` [cpd-6, (S)-2'-(Difluoromethyl)-5'-methoxy-N-((4-(1-methoxyethyl)benzyl)sulfonyl)-6-methyl-[4,4'-bipyridine]-3-carboxamide], for which the IC50 against Polθ ATPase (class symbols) was at most 2 nM; against Polθ ATPase (specific values), 0.6 nM; in the assay on DLD-1 BRCA2-/- cells, 189 nM.

For `COc1ccc(C(F)F)cc1-c1cc(C)ccc1C(=O)NS(=O)(=O)Cc1ccc([C@@H](C)OC)cc1` [cpd-7, (R)-5'-(Difluoromethyl)-2'-methoxy-N-((4-(1-methoxyethyl)benzyl)sulfonyl)-5-methyl-[1,1'-biphenyl]-2-carboxamide], the results for the IC50 against Polθ ATPase (class symbols), against Polθ ATPase (specific values) and in the assay with DLD-1 BRCA2-/- cells were at most 2 nM, 0.71 nM and 59 nM, respectively.

Consider `COc1ccc(C(F)F)cc1-c1cc(C)ncc1C(=O)NS(=O)(=O)Cc1ccc([C@@H](C)OC)cc1` [cpd-9, (R)-4-(5-(Difluoromethyl)-2-methoxyphenyl)-N-((4-(1-methoxyethyl)benzyl)sulfonyl)-6-methylnicotinamide], for which the values for the IC50 against Polθ ATPase (class symbols), at Polθ ATPase (specific values) and in the assay on DLD-1 BRCA2-/- cells were at most 2 nM, 0.52 nM and 63 nM, respectively.

Regarding `COc1cnc(C(F)F)cc1-c1cc(C)ncc1C(=O)NS(=O)(=O)Cc1ccc([C@@H](C)OC)cc1` [cpd-10, (R)-2'-(Difluoromethyl)-5'-methoxy-N-((4-(1-methoxyethyl)benzyl)sulfonyl)-6-methyl-[4,4'-bipyridine]-3-carboxamide], the IC50 against Polθ ATPase (class symbols) is at most 2 nM; against Polθ ATPase (specific values), 1.1 nM; in the assay with DLD-1 BRCA2-/- cells it was 514 nM.

In the case of `COc1ccc(C(F)F)cc1-c1cc(CC(=O)N(C)C2CC2)ccc1C(=O)NS(=O)(=O)Cc1ccc(C(C)C)cc1` [cpd-12, 5-(2-(Cyclopropyl(methyl)amino)-2-oxoethyl)-5'-(difluoromethyl)-N-((4-isopropylbenzyl)sulfonyl)-2'-methoxy-[1,1'-biphenyl]-2-carboxamide], the figures for the IC50 against Polθ ATPase (class symbols), against Polθ ATPase (specific values) and in the assay with DLD-1 BRCA2-/- cells were at most 2 nM, 1 nM and 70 nM, respectively.

For `COc1ccc(C(F)F)cc1-c1cc(Cc2nnc(C)o2)ccc1C(=O)NS(=O)(=O)Cc1ccc(C(C)C)cc1` [cpd-13, 5'-(Difluoromethyl)-N-((4-isopropylbenzyl)sulfonyl)-2'-methoxy-5-((5-methyl-1,3,4-oxadiazol-2-yl)methyl)-[1,1'-biphenyl]-2-carboxamide], the IC50 against Polθ ATPase (class symbols) is at most 2 nM; against Polθ ATPase (specific values), 0.88 nM; in the assay on DLD-1 BRCA2-/- cells it was 202 nM.

As to `COc1ccc(C(F)F)cc1-c1cc(C)ccc1C(=O)NS(=O)(=O)Cc1ccc(C(OC)C(F)(F)F)cc1` (stereo not shown) [cpd-14, 5'-(Difluoromethyl)-2'-methoxy-5-methyl-N-((4-(2,2,2-trifluoro-1-methoxyethyl)benzyl)sulfonyl)-[1,1'-biphenyl]-2-carboxamide], the IC50 against Polθ ATPase (class symbols) is at most 2 nM; against Polθ ATPase (specific values), 1.6 nM; in the assay on DLD-1 BRCA2-/- cells, 108 nM.

As for `COc1ccc(C(F)F)cc1-c1cc(C)ccc1C(=O)NS(=O)(=O)Cc1ccc(COC(F)F)cc1` [cpd-15, N-((4-((Difluoromethoxy)methyl)benzyl)sulfonyl)-5'-(difluoromethyl)-2'-methoxy-5-methyl-[1,1'-biphenyl]-2-carboxamide], in the assay on DLD-1 BRCA2-/- cells, the IC50 was 154 nM.

Regarding `COc1ccc(C(F)F)cc1-c1cc(C)ccc1C(=O)NS(=O)(=O)Cc1ccc(C(C)OC)nc1` (stereo not shown) [cpd-20, 5'-(Difluoromethyl)-2'-methoxy-N-(((6-(1-methoxyethyl)pyridin-3-yl)methyl)sulfonyl)-5-methyl-[1,1'-biphenyl]-2-carboxamide], the IC50 against Polθ ATPase (class symbols) was at most 2 nM; on Polθ ATPase (specific values) it was 1.4 nM.

For the compound `[2H]C([2H])([2H])O[C@@H](C)c1ccc(CS(=O)(=O)NC(=O)c2ccc(C([2H])([2H])[2H])cc2-c2nc(C(F)F)c(F)cc2OC)cc1` [cpd-23, (S)-2-(6-(Difluoromethyl)-5-fluoro-3-methoxypyridin-2-yl)-N-((4-(1-(methoxy-d3)ethyl)benzyl)sulfonyl)-4-(methyl-d3)benzamide], the IC50 with DLD-1 BRCA2-/- cells is 22 nM.

Turning to `[2H]C([2H])([2H])O[C@@H](C)c1ccc(CS(=O)(=O)NC(=O)c2ccc(C([2H])([2H])[2H])cc2-c2cc(C(F)F)c(F)nc2OC)cc1` [cpd-24, (S)-2-(5-(Difluoromethyl)-6-fluoro-2-methoxypyridin-3-yl)-N-((4-(1-(methoxy-d3)ethyl)benzyl)sulfonyl)-4-(methyl-d3)benzamide], in the assay on DLD-1 BRCA2-/- cells, the IC50 was found to be 33 nM.
